Data published in US8153795B2, “Substituted 1-oxa-3,8-diazaspiro[4.5]-decan-2-one-compounds and the use thereof for producing drugs” (Gruenenthal GmbH, priority 2005, dated 2012).

Key:
5-HT transporter = biological target: T1, 5-HT transporter (Rattus norvegicus, UniProt P31652); experiment: 5-HT uptake inhibition in rat brain synaptosomes (medulla and pons), [3H]-5-HT; format: biochemical
T1 construct: from tissue; host or cells: rat brain synaptosomes (P2 fraction) from medulla and pons
Procedure, shortened: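 Freshly isolated P2 synaptosomes taken from rat hypothalamus (NA) or medulla/pons (5-HT) were incubated at room temperature under O2 with [3H]-NA for 7.5 min or [3H]-5-HT for 5 min. Uptake was measured as filter-retained radioactivity by scintillation counting.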

NA transporter = biological target: T2, NA transporter (Rattus norvegicus, UniProt Q63380); experiment: noradrenalin uptake inhibition in rat brain synaptosomes (hypothalamus), [3H]-NA; format: biochemical
T2 construct: from tissue; host or cells: rat brain synaptosomes (P2 fraction) from hypothalamus
Text: a) Method for Determining Noradrenalin and 5-HT Uptake Inhibition:
Synaptosomes from rat brain regions are freshly isolated for in vitro studies, as described in the publication “The isolation of nerve endings from brain” by E. G. Gray and V. P. Whittaker, J. Anatomy 96, pages 79-88, 1962. The corresponding literature description is hereby introduced as a reference and is deemed to be part of the disclosure.
The tissue (hypothalamus for the determination of noradrenalin uptake inhibition and medulla and pons for the determination of 5-HT uptake inhibition) is homogenised in ice-cooled 0.32 M sucrose (100 mg of tissue/1 mL) in a glass homogeniser with Teflon pestle using five complete up and down strokes at 840 revolutions/minute.
The homogenate is centrifuged at 4° C. for 10 minutes at 1000 g. After subsequent centrifugation at 17000 g for 55 minutes, the synaptosomes (P2 fraction) are obtained, which are resuspended in 0.32 M […] (0.5 mL/100 mg of original weight).
The particular uptake is measured in a 96-well microtitre plate. The volume is 250 μl and the incubation proceeds at room temperature (approx. 20-25° C.) under an O2 atmosphere.
The incubation time is 7.5 minutes for [^3H]-NA and 5 minutes for [^3H]-5-HT. The 96 samples are then filtered through a Unifilter GF/B® microtitre plate (Packard) and washed with 200 mL of incubated buffer using a “Brabdel MPXRI-96T Cell-Harvester”. The Unifilter GF/B plate is dried for 1 hour at 55° C. The plate is then sealed with a Back Seal® (Packard) and 35 μl of scintillation fluid are added per well (Ultima Gold®, Packard). After sealing with a top Seal® (Packard) and establishing an equilibrium (around 5 hours), radioactivity is determined in a “Trilux 1450 Microbeta” (Wallac).
The quantity of protein used in the above determination corresponds to the values known from the literature, as for example described in “Protein measurement with the folin phenol reagent”, Lowry et al., J. Biol. Chem., 193, 265-275, 1951.
A detailed description of the method may additionally be found in the literature, for example in M. Ch. Frink, H.-H. Hennies, W. Engelberger, M. Haurand and B. Wilffert (1996) Arzneim.-Forsch./Drug Res. 46 (III), 11, 1029-1036.

human μ opioid receptor = biological target: T3, human μ opioid receptor (Homo sapiens, UniProt P35372); experiment: affinity for the human μ opioid receptor, displacement of [3H]-naloxone, CHO-K1 membrane preparation; conditions: percentage inhibition of specific binding of [3H]-naloxone
T3 construct: purchased NEN, Zaventem, Belgium RB-HOM; host or cells: CHO-K1 cells (recombinant expression, membrane preparation)
Description: Receptor affinity for the human p opioid receptor is determined in a homogeneous batch in microtitre plates. To this end, dilution series of the particular substituted 1-oxa-3,8-diazaspiro[4.5]-decan-2-one compounds to be tested were incubated at room temperature for 90 minutes in a total volume of 250 μl with a receptor membrane preparation (15-40 μg of protein per 250 μl of incubation batch) of CHO-K1 cells, which express the human p opioid receptor (RB-HOM receptor membrane preparation from NEN, Zaventem, Belgium) in the presence of 1 nmol/l of the radioactive ligand [^3H]-naloxone (NET719, from NEN, Zaventem, Belgium) and of 1 mg of WGA-SPA beads (wheat germ agglutinin SPA beads from Amersham/Pharmacia, Freiburg, Germany). The incubation buffer used is 50 mmol/l tris-HCl supplemented with 0.05 wt. % of sodium azide and 0.06 wt. % of bovine serum albumin. Nonspecific binding is determined by additionally adding 25 μmol/l of naloxone. Once the ninety minute incubation time had elapsed, the microtitre plates were centrifuged off for 20 minutes at 1000 g and the radioactivity measured in a β counter (Microbeta-Trilux, from PerkinElmer Wallac, Freiburg, Germany). The percentage displacement of the radioactive ligand from its binding to the human p opioid receptor is determined at a concentration of the substances to be tested of 1 μmol/l and stated as percentage inhibition of specific binding.

T2 sequence (Q63380 1-617): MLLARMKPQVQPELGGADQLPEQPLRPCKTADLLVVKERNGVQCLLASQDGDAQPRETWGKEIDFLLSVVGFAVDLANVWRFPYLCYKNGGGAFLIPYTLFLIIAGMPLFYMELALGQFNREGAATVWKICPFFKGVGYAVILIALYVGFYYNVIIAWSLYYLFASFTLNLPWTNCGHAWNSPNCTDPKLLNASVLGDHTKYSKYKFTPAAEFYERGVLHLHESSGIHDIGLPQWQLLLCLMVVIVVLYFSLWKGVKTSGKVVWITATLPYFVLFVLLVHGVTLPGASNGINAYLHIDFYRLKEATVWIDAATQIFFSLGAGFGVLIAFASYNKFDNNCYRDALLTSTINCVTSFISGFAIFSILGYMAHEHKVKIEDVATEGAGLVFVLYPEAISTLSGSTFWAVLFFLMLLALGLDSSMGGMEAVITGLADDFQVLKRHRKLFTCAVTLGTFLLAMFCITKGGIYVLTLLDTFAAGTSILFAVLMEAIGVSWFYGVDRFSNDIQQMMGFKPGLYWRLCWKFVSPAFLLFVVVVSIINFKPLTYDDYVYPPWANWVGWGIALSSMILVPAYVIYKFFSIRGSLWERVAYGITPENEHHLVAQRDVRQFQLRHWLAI
T1 sequence (P31652 whole entry): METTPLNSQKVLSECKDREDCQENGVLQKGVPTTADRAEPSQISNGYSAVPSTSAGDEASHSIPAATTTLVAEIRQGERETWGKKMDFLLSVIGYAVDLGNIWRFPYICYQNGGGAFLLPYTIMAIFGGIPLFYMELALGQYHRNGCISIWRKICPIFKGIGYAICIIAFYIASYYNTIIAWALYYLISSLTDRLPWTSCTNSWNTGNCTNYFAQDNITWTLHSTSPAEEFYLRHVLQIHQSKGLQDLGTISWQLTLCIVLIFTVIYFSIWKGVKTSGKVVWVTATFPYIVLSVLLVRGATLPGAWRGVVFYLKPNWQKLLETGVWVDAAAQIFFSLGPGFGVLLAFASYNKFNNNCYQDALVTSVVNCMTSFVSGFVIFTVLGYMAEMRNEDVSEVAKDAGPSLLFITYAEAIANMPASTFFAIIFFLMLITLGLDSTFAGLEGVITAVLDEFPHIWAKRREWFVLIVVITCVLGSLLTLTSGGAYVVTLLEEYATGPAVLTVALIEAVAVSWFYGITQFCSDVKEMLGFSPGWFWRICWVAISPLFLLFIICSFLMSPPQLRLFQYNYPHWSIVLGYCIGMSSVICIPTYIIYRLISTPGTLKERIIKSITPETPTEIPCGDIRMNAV
T3 sequence (P35372 whole entry): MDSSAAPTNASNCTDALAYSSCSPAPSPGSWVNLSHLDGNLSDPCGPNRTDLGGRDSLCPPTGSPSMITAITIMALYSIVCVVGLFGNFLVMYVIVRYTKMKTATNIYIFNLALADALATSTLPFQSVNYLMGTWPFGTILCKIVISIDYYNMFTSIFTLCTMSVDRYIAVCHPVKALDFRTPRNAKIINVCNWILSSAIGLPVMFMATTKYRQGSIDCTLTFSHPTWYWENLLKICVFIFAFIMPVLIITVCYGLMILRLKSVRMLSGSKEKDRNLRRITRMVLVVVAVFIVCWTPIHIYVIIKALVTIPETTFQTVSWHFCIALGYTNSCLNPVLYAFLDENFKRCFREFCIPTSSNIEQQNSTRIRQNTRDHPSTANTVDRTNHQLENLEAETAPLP

Compound	inhibition at 10 µM (5-HT transporter)	inhibition at 10 µM (NA transporter)	inhibition at 1 µM (human μ opioid receptor)
Cc1ccc(CN2CC3(CCN(C(=O)NCc4ccc(Cl)c(Cl)c4)CC3)OC2=O)cc1 [Example 36, 3-(4-methylbenzyl)-2-oxo-1-oxa-3,8-diazaspiro[4.5]decane-8-carboxylic acid 3,4-dichlorobenzylamide]	56%	60%	
COc1ccc(NC(=O)N2CCC3(CC2)CN(Cc2ccccc2)C(=O)O3)cc1 [Example 39, 3-benzyl-2-oxo-1-oxa-3,8-diazaspiro[4.5]decane-8-carboxylic acid (4-methoxyphenyl)amide]	42%	76%	
O=C(NCc1ccc(Cl)c(Cl)c1)N1CCC2(CC1)CN(Cc1cccc(Br)c1)C(=O)O2 [Example 42, 3-(3-bromobenzyl)-2-oxo-1-oxa-3,8-diazaspiro[4.5]decane-8-carboxylic acid 3,4-dichlorobenzylamide]	60%	83%	
O=C(NCc1ccc(Cl)c(Cl)c1)N1CCC2(CC1)CN(Cc1ccc3ccccc3c1)C(=O)O2 [Example 44, 3-naphthalen-2-ylmethyl-2-oxo-1-oxa-3,8-diazaspiro[4.5]decane-8-carboxylic acid 3,4-dichlorobenzylamide]	57%	61%	
COc1ccc(NC(=O)N2CCC3(CC2)CN(Cc2ccc4ccccc4c2)C(=O)O3)cc1 [Example 52, 3-naphthalen-2-ylmethyl-2-oxo-1-oxa-3,8-diazaspiro[4.5]decane-8-carboxylic acid (4-methoxyphenyl)amide]	94%	96%	
CCOC(=O)c1cccc(NC(=O)N2CCC3(CC2)CN(Cc2ccc(C)cc2)C(=O)O3)c1 [Example 53, 3-{[3-(4-methylbenzyl)-2-oxo-1-oxa-3,8-diazaspiro[4.5]decane-8-carbonyl]amino}benzoic acid ethyl ester]	68%	81%	
O=C(NCCc1ccccc1)N1CCC2(CC1)CN(Cc1ccccc1-c1ccccc1)C(=O)O2 [Example 57, 3-biphenyl-2-ylmethyl-2-oxo-1-oxa-3,8-diazaspiro[4.5]decane-8-carboxylic acid phenethylamide]	50%	55%	
CCOC(=O)c1cccc(NC(=O)N2CCC3(CC2)CN(Cc2cccc(C#N)c2)C(=O)O3)c1 [Example 61, 3-{[3-(3-cyanobenzyl)-2-oxo-1-oxa-3,8-diazaspiro[4.5]decane-8-carbonyl]amino}benzoic acid ethyl ester]	69%	77%	
COc1cccc(NC(=O)N2CCC3(CC2)CN(Cc2ccccc2-c2ccccc2)C(=O)O3)c1 [Example 62, 3-biphenyl-2-ylmethyl-2-oxo-1-oxa-3,8-diazaspiro[4.5]decane-8-carboxylic acid (3-methoxyphenyl)amide]	57%	67%	
COc1ccc([N+](=O)[O-])cc1CN1CC2(CCN(C(=O)NC(C)c3cccc4ccccc34)CC2)OC1=O (stereo not drawn) [Example 63, 3-(2-methoxy-5-nitrobenzyl)-2-oxo-1-oxa-3,8-diazaspiro[4.5]decane-8-carboxylic acid (1-naphthalen-1-yl-ethyl)amide]	84%	41%	
O=C(O)COCC(=O)N1CCC2(CC1)CN(Cc1ccc(F)c(F)c1)C(=O)O2 [Example 64, {2-[3-(3,4-difluorobenzyl)-2-oxo-1-oxa-3,8-diazaspiro[4.5]dec-8-yl]-2-oxoethoxy}acetic acid]			48%
O=C1OC2(CCN(Cc3ccc([N+](=O)[O-])cc3)CC2)CN1Cc1ccc(F)c(F)c1 [Example 74, 3-(3,4-difluorobenzyl)-8-(4-nitrobenzyl)-1-oxa-3,8-diazaspiro[4.5]decan-2-one]	66%	57%	
COc1ccc(-c2noc(CN3CCC4(CC3)CN(Cc3ccc(F)c(F)c3)C(=O)O4)n2)cc1 [Example 77, 3-(3,4-difluorobenzyl)-8-[3-(4-methoxyphenyl)-[1,2,4]oxadiazol-5-ylmethyl]-1-oxa-3,8-diazaspiro[4.5]decan-2-one]	50%	64%	
O=C1OC2(CCN(Cc3ccc(OC(F)(F)F)cc3)CC2)CN1Cc1ccccc1 [Example 78, 3-benzyl-8-(4-trifluoromethoxybenzyl)-1-oxa-3,8-diazaspiro[4.5]decan-2-one]	51%	53%	
COc1cccc(CN2CC3(CCN(Cc4ccc(Cl)cc4)CC3)OC2=O)c1 [Example 79, 8-(4-chlorobenzyl)-3-(3-methoxybenzyl)-1-oxa-3,8-diazaspiro[4.5]decan-2-one]	67%	57%	
Cc1csc(NC(=O)CN2CCC3(CC2)CN(Cc2ccc(F)c(F)c2)C(=O)O3)c1C#N [Example 80, N-(3-cyano-4-methylthiophen-2-yl)-2-[3-(3,4-difluorobenzyl)-2-oxo-1-oxa-3,8-diazaspiro[4.5]dec-8-yl]acetamide]	47%	45%	
O=C(CN1CCC2(CC1)CN(Cc1ccccc1F)C(=O)O2)Nc1nc(-c2ccccc2)cs1 [Example 86, 2-[3-(2-fluorobenzyl)-2-oxo-1-oxa-3,8-diazaspiro[4.5]dec-8-yl]-N-(4-phenylthiazol-2-yl)acetamide]	56%	79%	
O=C(CN1CCC2(CC1)CN(Cc1ccccc1C(F)(F)F)C(=O)O2)Nc1ccc(OC(F)(F)F)cc1 [Example 87, 2-[2-oxo-3-(2-trifluoromethylbenzyl)-1-oxa-3,8-diazaspiro[4.5]dec-8-yl]-N-(4-trifluoromethoxyphenyl)acetamide]	72%	59%	
N#Cc1ccc(CN2CC3(CCN(Cc4cccc([N+](=O)[O-])c4)CC3)OC2=O)cc1 [Example 89, 4-[8-(3-nitrobenzyl)-2-oxo-1-oxa-3,8-diazaspiro[4.5]dec-3-ylmethyl]benzonitrile]	63%	57%	
O=C1OC2(CCN(C(=O)c3ccc(-c4ccccc4)cc3)CC2)CN1Cc1cccc(Br)c1 [Example 104, 8-(biphenyl-4-carbonyl)-3-(3-bromobenzyl)-1-oxa-3,8-diazaspiro[4.5]decan-2-one]	89%	73%	
O=C1OC2(CCN(C(=O)c3ccc([N+](=O)[O-])cc3)CC2)CN1Cc1cccc(Br)c1 [Example 109, 3-(3-bromobenzyl)-8-(4-nitrobenzoyl)-1-oxa-3,8-diazaspiro[4.5]decan-2-one]	81%	78%	
COc1cc(OC)cc(C(=O)N2CCC3(CC2)CN(Cc2cccc(Br)c2)C(=O)O3)c1 [Example 137, 3-(3-bromobenzyl)-8-(3,5-dimethoxybenzoyl)-1-oxa-3,8-diazaspiro[4.5]decan-2-one]	74%	84%	
CCCc1ccc(C(=O)N2CCC3(CC2)CN(Cc2cccc(Br)c2)C(=O)O3)cc1 [Example 148, 3-(3-bromobenzyl)-8-(4-propylbenzoyl)-1-oxa-3,8-diazaspiro[4.5]decan-2-one]	73%	75%	
